Reference: patent US8614223B2, “Pyrimidine hydroxy amide compounds as protein deacetylase inhibitors and methods of use thereof” (Acetylon Pharmaceuticals, Inc., priority 2010, dated 2013)

What was measured:
HDAC6 = HDAC6 (Homo sapiens (Human), UniProt Q9UBN7); conditions: read-out: HDAC6 IC50
HDAC3 = HDAC3 (Homo sapiens (Human), UniProt O15379); assay: HDAC enzyme assay, HDAC3; conditions: for HDAC3 fold over HDAC6 IC50 (selectivity for HDAC6): ratio HDAC3/HDAC6; for IC50: read-out: HDAC3 IC50
HDAC2 = HDAC2 (Homo sapiens (Human), UniProt Q92769); assay: HDAC enzyme assay, HDAC2; conditions: for HDAC2 fold over HDAC6 IC50 (selectivity for HDAC6): ratio HDAC2/HDAC6; for IC50: read-out: HDAC2 IC50
HDAC1 = HDAC1 (Homo sapiens (Human), UniProt Q13547); assay: HDAC enzyme assay, HDAC1; conditions: for HDAC1 fold over HDAC6 IC50 (selectivity for HDAC6): ratio HDAC1/HDAC6; for IC50: read-out: HDAC1 IC50
HDAC1, sequence (Q13547 whole entry): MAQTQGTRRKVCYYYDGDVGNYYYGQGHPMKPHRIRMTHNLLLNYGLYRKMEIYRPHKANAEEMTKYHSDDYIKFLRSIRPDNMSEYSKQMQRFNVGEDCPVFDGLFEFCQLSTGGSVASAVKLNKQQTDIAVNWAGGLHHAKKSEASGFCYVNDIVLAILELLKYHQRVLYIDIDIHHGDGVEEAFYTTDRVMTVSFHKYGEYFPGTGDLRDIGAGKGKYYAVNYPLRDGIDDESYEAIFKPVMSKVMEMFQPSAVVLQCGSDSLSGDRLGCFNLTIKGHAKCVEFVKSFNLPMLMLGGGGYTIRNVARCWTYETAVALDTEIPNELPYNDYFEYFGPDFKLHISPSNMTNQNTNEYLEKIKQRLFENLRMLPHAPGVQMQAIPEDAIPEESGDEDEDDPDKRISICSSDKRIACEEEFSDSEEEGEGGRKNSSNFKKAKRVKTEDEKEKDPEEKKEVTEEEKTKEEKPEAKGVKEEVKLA

HDAC2, sequence (Q92769 whole entry): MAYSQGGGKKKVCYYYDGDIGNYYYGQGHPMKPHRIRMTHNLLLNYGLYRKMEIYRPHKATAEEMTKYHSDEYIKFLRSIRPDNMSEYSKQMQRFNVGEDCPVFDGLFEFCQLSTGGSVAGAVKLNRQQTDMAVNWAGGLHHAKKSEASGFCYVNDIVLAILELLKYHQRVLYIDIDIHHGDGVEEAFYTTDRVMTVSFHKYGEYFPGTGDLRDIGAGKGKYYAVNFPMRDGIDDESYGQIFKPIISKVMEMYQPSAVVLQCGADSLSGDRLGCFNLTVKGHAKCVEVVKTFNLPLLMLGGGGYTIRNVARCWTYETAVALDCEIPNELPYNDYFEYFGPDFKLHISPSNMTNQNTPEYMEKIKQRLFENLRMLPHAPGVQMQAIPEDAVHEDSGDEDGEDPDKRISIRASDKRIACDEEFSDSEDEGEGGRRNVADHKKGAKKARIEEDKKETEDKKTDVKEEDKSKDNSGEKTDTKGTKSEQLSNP
HDAC6, sequence (Q9UBN7 whole entry): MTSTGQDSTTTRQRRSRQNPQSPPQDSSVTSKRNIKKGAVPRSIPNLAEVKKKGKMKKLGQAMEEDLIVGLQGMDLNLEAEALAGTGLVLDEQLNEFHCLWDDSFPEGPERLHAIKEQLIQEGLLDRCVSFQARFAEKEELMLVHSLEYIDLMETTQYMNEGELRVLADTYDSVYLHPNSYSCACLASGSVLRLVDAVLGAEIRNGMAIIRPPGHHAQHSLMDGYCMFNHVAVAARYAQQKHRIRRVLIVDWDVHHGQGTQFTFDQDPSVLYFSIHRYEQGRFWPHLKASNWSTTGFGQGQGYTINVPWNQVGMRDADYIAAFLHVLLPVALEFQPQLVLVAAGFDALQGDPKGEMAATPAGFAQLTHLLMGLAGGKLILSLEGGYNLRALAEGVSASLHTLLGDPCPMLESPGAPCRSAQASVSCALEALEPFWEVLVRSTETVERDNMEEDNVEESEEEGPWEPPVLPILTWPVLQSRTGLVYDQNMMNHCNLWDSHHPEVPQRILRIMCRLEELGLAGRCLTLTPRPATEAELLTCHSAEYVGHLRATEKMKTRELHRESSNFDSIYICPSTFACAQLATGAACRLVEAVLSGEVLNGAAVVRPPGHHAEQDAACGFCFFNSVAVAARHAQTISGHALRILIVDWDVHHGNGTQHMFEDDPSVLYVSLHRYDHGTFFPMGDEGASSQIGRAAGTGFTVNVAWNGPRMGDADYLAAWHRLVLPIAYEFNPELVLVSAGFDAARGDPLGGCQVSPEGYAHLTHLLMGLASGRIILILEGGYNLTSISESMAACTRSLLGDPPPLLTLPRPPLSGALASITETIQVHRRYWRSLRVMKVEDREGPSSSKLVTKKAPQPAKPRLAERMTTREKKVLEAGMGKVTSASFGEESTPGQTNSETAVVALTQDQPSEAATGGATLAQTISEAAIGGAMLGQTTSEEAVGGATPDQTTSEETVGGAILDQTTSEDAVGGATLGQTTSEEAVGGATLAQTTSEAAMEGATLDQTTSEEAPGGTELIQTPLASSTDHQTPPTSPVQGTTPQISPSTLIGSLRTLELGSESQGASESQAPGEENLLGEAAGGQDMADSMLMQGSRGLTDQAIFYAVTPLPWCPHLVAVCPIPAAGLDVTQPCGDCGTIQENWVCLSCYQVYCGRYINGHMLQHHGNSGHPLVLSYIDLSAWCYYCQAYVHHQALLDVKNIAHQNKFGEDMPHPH
HDAC3, sequence (O15379 whole entry): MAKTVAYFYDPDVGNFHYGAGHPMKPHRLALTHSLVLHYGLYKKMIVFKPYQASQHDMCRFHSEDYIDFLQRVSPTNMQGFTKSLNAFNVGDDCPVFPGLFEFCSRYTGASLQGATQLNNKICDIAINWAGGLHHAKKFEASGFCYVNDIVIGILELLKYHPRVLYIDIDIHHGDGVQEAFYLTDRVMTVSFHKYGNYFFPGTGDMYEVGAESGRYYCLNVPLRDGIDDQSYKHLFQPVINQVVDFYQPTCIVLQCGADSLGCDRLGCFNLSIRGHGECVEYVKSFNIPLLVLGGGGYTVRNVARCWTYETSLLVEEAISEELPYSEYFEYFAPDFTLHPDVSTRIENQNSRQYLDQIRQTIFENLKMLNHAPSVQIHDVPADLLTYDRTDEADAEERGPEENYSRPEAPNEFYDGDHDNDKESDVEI
HDAC3, sequence (Q9Y618 395-489 partner): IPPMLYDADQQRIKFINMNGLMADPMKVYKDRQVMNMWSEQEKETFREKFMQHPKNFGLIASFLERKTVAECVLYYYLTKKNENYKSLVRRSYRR

SMILES	IC50 (HDAC6)	HDAC3 fold over HDAC6 IC50 (selectivity for HDAC6) (HDAC3)	IC50 (HDAC3)	HDAC2 fold over HDAC6 IC50 (selectivity for HDAC6) (HDAC2)	IC50 (HDAC2)	HDAC1 fold over HDAC6 IC50 (selectivity for HDAC6) (HDAC1)	IC50 (HDAC1)
CC(C)(Nc1ncc(C(=O)NO)cn1)c1ccc(F)cc1F [Compound 70]	3 nM	(441.9x)	1310 nM	(327.2x)	972 nM	(217.2x)	645 nM
O=C(NO)c1cnc(Nc2cc(F)cc(F)c2)nc1 [Compound 18]	13 nM	(14.1x)	177 nM	13.5x)	170 nM	(10.8x)	136 nM
O=C(NO)c1cnc(NC2(c3ccc(C(F)(F)F)c(F)c3)CC2)nc1 [Compound 137]	4 nM	(18.5x)	70 nM	(5.5x)	21 nM	(7.1x)	27 nM
O=C(NO)c1cnc(NCCc2c(Cl)cccc2Cl)nc1 [Compound 63]	19 nM	(93.7x)	1750 nM	(96.5x)	1800 nM	(77.6x)	1440 nM
C[C@H](Nc1ncc(C(=O)NO)cn1)c1ccccc1 [Compound 65]	19 nM	–	–	–	–	–	–
O=C(NO)c1cnc(NCCc2ccccc2-c2ccccc2)nc1 [Compound 59]	40 nM	(22x)	873 nM	(20.5x)	815 nM	(15.3x)	607 nM
CC(C)(Nc1ncc(C(=O)NO)cn1)c1ccccc1 [Compound 50]	4 nM	(547.1x)	2210 nM	(374.6x)	1520 nM	(288.1x)	1170 nM
O=C(NO)c1cnc(NCc2ccc(Cl)cc2)nc1 [Compound 36]	2 nM	(33x)	75 nM	(31.2x)	71 nM	(17.5x)	40 nM
O=C(NO)c1cnc(NC2(c3cccs3)CC2)nc1 [Compound 98]	4 nM	–	4250 nM	–	–	–	147 nM
O=C(NO)c1cnc(NCCc2ccccc2)nc1 [Compound 41]	4 nM	–	326 nM	–	–	–	214 nM
COc1ccc(C2(Nc3ncc(C(=O)NO)cn3)CCCCC2)cc1 [Compound 122]	20 nM	(197.8x)	3940 nM	(45x)	898 nM	(44.8x)	893 nM
O=C(NO)c1cnc(Nc2cccc(C(F)(F)F)c2)nc1 [Compound 22]	3 nM	(117x)	313 nM	(166.7x)	446 nM	(83.1x)	222 nM
CC(C)(Nc1ncc(C(=O)NO)cn1)c1ccc(F)c(F)c1 [Compound 76]	4 nM	(260x)	1060 nM	(149.7x)	609 nM	(153.3x)	624 nM
O=C(NO)c1cnc(NCCc2ccc(Cl)cc2)nc1 [Compound 44]	11 nM	–	307 nM	–	–	–	173 nM
CC(C)(Nc1ncc(C(=O)NO)cn1)c1ccc(C(F)(F)F)cc1F [Compound 86]	13 nM	(221.2x)	2890 nM	(98.9x)	1290 nM	(60.3x)	788 nM
O=C(NO)c1cnc(NC2(c3cccs3)CCCCC2)nc1 [Compound 154]	5 nM	(647.4x)	3360 nM	(307.8x)	1600 nM	(263.9x)	1370 nM
O=C(NO)c1cnc(NC2(c3ccc(F)cc3F)CC2)nc1 [Compound 123]	3 nM	(9.6x)	26 nM	(4.3x)	12 nM	(4.8x)	13 nM
O=C(NO)c1cnc(NC2(c3ccc4c(c3)OCO4)CC2)nc1 [Compound 128]	2 nM	(24.8x)	49 nM	(8.9x)	17 nM	(8.1x)	16 nM
O=C(NO)c1cnc(Nc2cccc(-c3ccncc3)c2)nc1 [Compound 30]	3 nM	(44.1x)	141 nM	(56.5x)	181 nM	(27.5x)	88 nM
O=C(NO)c1cnc(NC2(c3ccccc3)CCOCC2)nc1 [Compound 95]	3 nM	(685x)	2270 nM	(217.7x)	722 nM	(176.7x)	586 nM
CC(C)(Nc1ncc(C(=O)NO)cn1)c1ccc(Cl)c(Cl)c1 [Compound 80]	2 nM	(100.3x)	212 nM	(60.2x)	127 nM	(40.4x)	85 nM
COc1ccc(C2(Nc3ncc(C(=O)NO)cn3)CCCC2)cc1 [Compound 152]	4 nM	(29.9x)	649 nM	(10.1x)	220 nM	(11.4x)	248 nM
O=C(NO)c1cnc(NC2(c3ccc(Cl)c(Cl)c3)CC2)nc1 [Compound 141]	–	–	54 nM	–	17 nM	–	13 nM

SMILES	IC50 (HDAC6)	HDAC3 fold over HDAC6 IC50 (selectivity for HDAC6) (HDAC3)	IC50 (HDAC3)	HDAC2 fold over HDAC6 IC50 (selectivity for HDAC6) (HDAC2)	IC50 (HDAC2)	HDAC1 fold over HDAC6 IC50 (selectivity for HDAC6) (HDAC1)	IC50 (HDAC1)
Cc1ccccc1C1(Nc2ncc(C(=O)NO)cn2)CC1 [Compound 127]	–	–	119 nM	–	57 nM	–	50 nM
O=C(NO)c1cnc(NC2(c3cccc(Cl)c3)CCCC2)nc1 [Compound 153]	–	–	1260 nM	–	491 nM	–	528 nM
C[C@@H](Nc1ncc(C(=O)NO)cn1)c1ccccc1 [Compound 62]	2 nM	–	–	–	–	–	–
O=C(NO)c1cnc(NCc2ccncc2)nc1 [Compound 69]	5 nM	–	299 nM	–	–	–	204 nM
C[C@@H](Nc1ncc(C(=O)NO)cn1)c1ccccc1 [Compound 66]	1 nM	–	–	–	–	–	–
CC(Nc1ncc(C(=O)NO)cn1)c1ccccc1 (stereo not drawn) [Compound 32]	2 nM	–	–	–	–	–	–
C[C@H](Nc1ncc(C(=O)NO)cn1)c1ccccc1 [Compound 61]	37 nM	–	–	–	–	–	–
O=C(NO)c1cnc(Nc2ccc(Cl)c(Cl)c2)nc1 [Compound 2]	5 nM	–	299 nM	–	–	–	264 nM
CN(c1ccc(Cl)c(Cl)c1)c1ncc(C(=O)NO)cn1 [Compound 8]	38 nM	–	219 nM	–	–	–	–
O=C(NO)c1cnc(NC2(c3cccc(F)c3)CC2)nc1 [Compound 87]	–	–	233 nM	–	116 nM	–	85 nM
O=C(NO)c1cnc(NC2(c3ccc(F)c(Cl)c3)CC2)nc1 [Compound 131]	–	–	62 nM	–	19 nM	–	17 nM
O=C(NO)c1cnc(NC2(c3cccc(C(F)(F)F)c3)CC2)nc1 [Compound 121]	–	–	99 nM	–	32 nM	–	27 nM
COc1cc(F)ccc1CNc1ncc(C(=O)NO)cn1 [Compound 49]	–	–	303 nM	–	338 nM	–	219 nM
O=C(NO)c1cnc(NC2(c3cccc(Cl)c3)CC2)nc1 [Compound 94]	–	–	50 nM	–	–	–	22 nM
O=C(NO)c1cnc(NC2(c3ccc(Cl)cc3)CC2)nc1 [Compound 136]	–	–	107 nM	–	40 nM	–	45 nM
O=C(NO)c1cnc(NC2(c3cc(Cl)cc(Cl)c3)CC2)nc1 [Compound 146]	–	–	57 nM	–	22 nM	–	16 nM
CC(Nc1ncc(C(=O)NO)cn1)c1ccccc1 (stereo not drawn) [Compound 67]	2 nM	–	–	–	–	–	–
O=C(NO)c1cnc(NCc2ccc3c(c2)OCO3)nc1 [Compound 46]	–	–	58 nM	–	53 nM	–	40 nM
CC(C)(Nc1ncc(C(=O)NO)cn1)c1ccccc1F [Compound 71]	–	–	1260 nM	–	912 nM	–	500 nM
COc1cccc(C2(Nc3ncc(C(=O)NO)cn3)CC2)c1 [Compound 120]	–	–	128 nM	–	53 nM	–	38 nM
Cc1cccc(C2(Nc3ncc(C(=O)NO)cn3)CC2)c1 [Compound 134]	–	–	99 nM	–	40 nM	–	47 nM
Cc1cc(Cl)ccc1CNc1ncc(C(=O)NO)cn1 [Compound 52]	3 nM	–	–	–	–	–	185 nM
O=C(NO)c1cnc(NC2(c3ccccc3F)CC2)nc1 [Compound 82]	–	–	22 nM	–	18 nM	–	16 nM
